The text below walks through data of patent US20050250837A1, “Use of C-Raf inhibitors for the treatment of neurodegenerative diseases” (priority 2002, published 2005).

The subject of assay [1] is cerebellar granule neurons. Nature of the assay: LK-induced apoptosis of cultured cerebellar granule neurons (MTT viability). It is filed as cell-based, rat. As to conditions: for effect of MEK inhibitor on neuroprotection by GW5074: LK + 1 uM GW5074 with 40 uM PD98059 or 10 uM U0126. Here is the method:
Cultured cerebellar granule neurons undergo apoptosis when switched from HK to medium containing LK (D'Mello et al., 1993). […] Neuronal cultures were switched to medium containing LK, or LK medium containing different doses of GW5074. Cell viability was quantified 24 hours later. Control cultures received HK medium. […] Protection against LK-induced apoptosis is maximal at 1 uM.
Granule neuron cultures were obtained from dissociated cerebella of 7-8 day old rats as described previously (D'Mello et al., 1993). Cells were plated in Basal Eagle's Medium with Earles salts (BME) supplemented with 10% fetal bovine serum (FBS), 25 mM KCl, 2 mM glutamine (Gibco-BRL), and 100 ug/ml gentamycin on dishes coated with poly-L-lys ine in 24-well dishes at a density 1.0×10^6 cells/well, 1.2×10^7 cells/60 mm dish, or 3.0×10^7 cells/100 mm dish. Cytosine arabinofuranoside (10 uM) was added to the culture medium 18-22 hours after plating to prevent replication of non-neuronal cells. Cultures were maintained for 6-7 days prior to experimental treatments. For this, the cells were rinsed once and then maintained in low K^+ medium (serum-free BME medium, 5 mM KCl) or high K^+ medium (serum-free BME medium, supplemented with 20 mM KCl). When used to treat cultures, GW5074 was added at the time when cells were switched to LK medium. Treatment of cultures with pharmacological inhibitors was initiated 15 min prior to rinsing and was maintained through the subsequent incubation in LK or HK medium unless specified otherwise. For MPP+ and methylmercury treatments, 7-8 day old cultures were switched to HK medium containing 200 uM MPP+ or 0.5 uM methylmercury. Viability was assayed 24 hours later.
Neuronal survival was quantified by the MTT assay as previously described (Koulich et al., 2001). Briefly, the tetrazolium salt MTT [3-(4,5-dimethyl-2-thiazolyl)-2,5-diphenyl-2H tetrazolium bromide] was added to the cultures at a final concentration of 1 mg/ml, and incubation of the culture was continued in the CO2 incubator for a further 30 min at 37° C. The assay was stopped by adding lysis buffer [20% SDS in 50% N,N-dimethyl formamide, pH 4.7]. The absorbance was measured specrophotometrically at 570 nm after an overnight incubation at room temperature. The absorbance of a well without cells was used as background and subtracted. Results obtained using the MTT assays were confirmed using the fluorescein-diacetate method for quantification of cell viability, as previously described (D'Mello et al., 1993). Data are presented as mean+/−standard deviation. Statistical analysis was performed using ANOVA and Student-Neuman-Keuls' test.

A further assay concerns ERK 1/2. Nature of the assay: ERK 1/2 phosphorylation in neuronal cultures, Western blot. It is filed as cell-based, rat. As to conditions: LK + 1 uM GW5074 + 40 uM PD98059, 1 hour. An excerpt: Activation of all three Raf proteins results in activation of MEK and ERK.
Survival of cerebellar granule neurons can be maintained by BDNF and this effect of BDNF is mediated by the Raf-MEK-ERK signaling pathway (Bonni et al., 1999). The Raf-MEK-ERK pathway is also involved in promoting survival of other neuronal and normeuronal cell types. A potent blocker of the Raf-MEK-ERK pathway is PD98059 (Alessi et al., 1995). In paradigms in which the Raf-MEK-ERK pathway mediates neuronal survival, such as BDNF-treated cerebellar granule neurons, the presence of […] blocks survival (Bonni et al., 1999). […] Lysates from the cultures were subjected to Western blotting using an antibody specific for phospho-ERK.
(§1) For whole-cell lysates, the culture medium was discarded, the neurons washed twice with ice-cold phosphate-buffered saline (PBS), and lysed in lysis buffer (1% Triton, 20 mM Tris-HCl (pH 7.5), 150 mM NaCl, 1 mM Na2EDTA, 1 mM EGTA, 2.5 mM sodium pyrophosphate, 1 mM beta-glycerophosphate, 1 mM Na3VO4, 1 μg/ml leupeptin and 1× protease inhibitor mixture). Protein concentrations were measured using a Bradford protein assay kit (Bio-Rad), and equivalent amounts of protein were mixed with 6×SDS-PAGE sample buffer. […] After staining with Ponceau S to verify uniformity of protein loads/transfer, the membranes were analyzed for immunoreactivity. […]
In general terms: Immunoblotting shows a protein as a band on a membrane.

For another assay, the target named is T1, C-Raf (Rattus norvegicus, UniProt P11345).
T1 construct: Activities of endogenous C-Raf and B-Raf activity was assayed by measuring the ability of kinase immunoprecipitated from neuronal lysates; endogenous in cells; host or cells: primary rat cerebellar granule neurons
Nature of the assay: Activity of C-Raf immunoprecipitated from neuronal lysates, GST-MEK substrate, phospho-MEK Western. Type of assay: cell-based. How it is done:
The immunoprecipitated C-Raf was used in in vitro kinase assays using GST-MEK as substrate and the reaction products subjected to Western analysis. Phosphorylation of MEK was detected using a phospho-MEK antibody. […] After 1 hour of treatment, the cultures were lysed, C-Raf immunoprecipitated from the lysate and used in an in vitro kinase assay with MEK as substrate. The reaction mixture was subjected to Western analysis using a phospho-MEK antibody as probe.
(Hall-Jackson et al., 1999). […] Lysates from the cultures were used in a kinase reaction with MEK as substrate. […] Phosphorylation of MEK was detected by Western blot analysis using an phospho-MEK antibody and the same blot was reprobed with a C-Raf antibody.
After treatment, cultures of 7-8-day old neurons were washed twice with ice-cold PBS and lysed in ice cold lysis buffer. The lysates were centrifuged for 10 min at 10,000 rpm at 4° C. Protein concentrations of the supernatant were measured using a Bradford protein assay kit (Bio-Rad), and equivalent amounts of protein were incubated overnight with primary antibody (1.0-2 ug) and then for 2 h with 20 ul Protein A/G PLUS-Agarose (Santa Cruz Biotech.) Immunoprecipitates were collected by centrifugation at 2,500 rpm for 5 min at 4° C. and washed three times with lysis buffer, and pellets resuspended in electrophoresis sample buffer (187.5 mM Tris-HCl (pH 6.8 at 25° C.), 6% SDS, 30% glycerol, 150 mM DTT, 0.03% bromophenol blue), boiled for 4 min and subjected to SDS-polyacrylamide gel electrophoresis.
Activities of endogenous C-Raf and B-Raf activity was assayed by measuring the ability of kinase immunoprecipitated from neuronal lysates to phosphorylate a kinase-dead recombinant GST-MEK1 substrate. Following immunoprecipitation and multiple washes with lysis buffer, lysis buffer supplemented with 350 mM NaCl, and kinase buffer (25 mM HEPES pH 7.4 and 10 mM MgCl2), in vitro kinase assays are performed on the immune complexes using purified recombinant GST-MEK1 K97M protein as a substrate in kinase buffer supplemented with 85 μM ATP for 35 minutes at 30° C. Reactions are stopped by the addition of 3×SDS sample buffer and boiled for five minutes. Proteins are resolved by SDS-PAGE and subjected to Western blotting. The level of phosphorylated MEK is detected by a phospho-MEK antibody.

For the next assay, the system named is Akt. In words: Akt phosphorylation (Ser473) in neuronal cultures, Western blot. It is filed as cell-based, rat. As to conditions: added to cultures already switched to LK. Here is the method:
The best-studied anti-apoptotic pathway in neurons is the PI-3 kinase—Akt signaling pathway (D'Mello et al., 1997; Dudek et al., 1997; Miller et al, 1997a). IGF-1, a potent survival-promotic factor for granule neurons mediates its effect by activating the PI-3 kinase-Akt pathway (Datta et al., 1997; Dudek et al., 1997; D'Mello et al., 1998). […] Switching cerebellar granule neurons from serum-containing HK medium in which they are cultured and allowed to mature, to serum-free LK or HK medium, causes a rapid downregulation of Akt phosphorylation and activity, which can be prevented by IGF-1 (Kumari et al., 2001). […] The same blot was reprobed with an antibody against phospho-Gskβ. Also loaded on the gel were lysates from untreated cultures (maintained in medium containing serum and high K+) and a culture treated for 1 hour with 25 ng/ml IGF-1. […] GSK3βis a proapoptotic molecule that is activated during apoptosis in many neuronal and normeuronal systems. Under survival promoting conditions GSK3β is kept inactivated by phosphorylation, a modification that can be induced by Akt. […] Another proapoptotic molecule that is phosphorylated and inactivated by Akt is the transcription factor, Forkhead (Linseman et al., 2002). […] Switching of neurons to LK medium leads to a rapid downregulation of Akt activity within 2 hours.
as §1

Assay [2] deals with cerebellar granule neurons. Nature of the assay: Apoptosis of neurons infected with adenoviral dominant-negative Akt. The settings on record: LK + 1 uM GW5074 or 25 ng/ml IGF-1. Type of assay: cell-based, rat. The text has this:
Five day old neuronal cultures were infected with adenoviral vectors expressing either GFP or hemagluttinin (HA)-tagged dominant-negative Akt. […] Infected neurons were detected by positive staining for GFP or HA by immunocytochemistry. The proportion of apoptotic cells (condensed or fragmented nuclei) as a percentage of total infected neurons was quantified following DAPI-staining.
DnAkt and control recombinant adenovirus expressing green fluorescent protein (Ad-GFP) are propagated in HEK293T cells and purified by cesium chloride density gradient centrifugation. After quantification of titer, virus at an MOI of 10 are used to infect granule neuron cultures 5 days after plating by direct addition to the medium. Treatments are performed 24 hours after addition of virus.

T1 sequence (P11345 whole entry): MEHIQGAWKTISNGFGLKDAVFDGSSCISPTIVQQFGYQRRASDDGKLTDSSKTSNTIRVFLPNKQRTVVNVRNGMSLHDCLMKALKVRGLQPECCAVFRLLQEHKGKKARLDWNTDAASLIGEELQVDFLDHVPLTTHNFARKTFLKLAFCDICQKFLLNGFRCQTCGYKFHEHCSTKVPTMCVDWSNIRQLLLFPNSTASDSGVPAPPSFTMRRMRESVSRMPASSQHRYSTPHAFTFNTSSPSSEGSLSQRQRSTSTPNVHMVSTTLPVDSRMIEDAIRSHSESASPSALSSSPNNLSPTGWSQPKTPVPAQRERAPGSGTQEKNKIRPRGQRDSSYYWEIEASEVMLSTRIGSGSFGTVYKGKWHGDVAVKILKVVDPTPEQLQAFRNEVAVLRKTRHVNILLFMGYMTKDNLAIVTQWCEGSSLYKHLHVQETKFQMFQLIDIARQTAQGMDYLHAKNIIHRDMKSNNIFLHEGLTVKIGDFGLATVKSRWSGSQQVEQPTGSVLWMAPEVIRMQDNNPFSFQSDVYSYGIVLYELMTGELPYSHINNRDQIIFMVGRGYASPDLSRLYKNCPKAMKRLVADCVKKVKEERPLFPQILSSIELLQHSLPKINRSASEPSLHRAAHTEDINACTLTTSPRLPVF

On to `CC(C)=CCC/C(C)=C/CC/C(C)=C/CSc1ccccc1C(=O)O` [FTS, S-trans, trans-farnesylthiosalicylic acid], for which the “effect of Ras antagonist on neuroprotection by GW5074” value in assay [1] (LK + 1 uM GW5074 + 10 uM FTS, 24 hour) was “blocks the neuroprotective effect of GW5074”.
`COc1cccc(-c2cc(=O)c3ccccc3o2)c1N` [PD98059, reference compound]: in assay [1], the “effect of MEK inhibitor on neuroprotection by GW5074” value was “no effect on the neuroprotective effect of GW5074”. Moreover, the “effect on stimulation of ERK by GW5074” value in the assay with ERK 1/2 is recorded as “blocks the stimulation of ERK by GW5074”.
As for `N#CC(=C(/N)Sc1ccccc1N)/C(C#N)=C(\N)Sc1ccccc1N` [U0126], the “effect of MEK inhibitor on neuroprotection by GW5074” value in assay [1] was “failed to reduce survival by GW5074”.
Regarding `Cc1ccc(NC(=O)c2cccc(N(C)C)c2)cc1NC(=O)c1ccc(O)cc1` [ZM336372, N-[5-(3-Dimethylaminobenzamido)-2-methylphenyl]-4-hydroxybenzamide, reference compound], the “inhibition of LK-mediated apoptosis” value in assay [1] (LK medium containing 100 uM ZM336372) was “inhibits LK-mediated apoptosis”. The “effect on immunoprecipitated C-Raf when added in vitro” value on C-Raf (10 uM ZM336372 added to kinase reaction mixture) is on record as “inhibited in vitro by ZM336372”. Further, the “activity of C-Raf immunoprecipitated from treated cultures” value on C-Raf (LK + 50 uM ZM336372, 1 hour) is “elevated activity”.
On to “IGF-1: a potent survival-promotic factor for granule neurons”, for which the “de novo Akt activation after downregulation in LK” value with Akt is “robust increase in Akt phosphorylation”. The “effect of dominant-negative Akt on survival promotion” value in assay [2] was “reduces the survival-promoting effect of IGF-1”.
